Measured values published in the METLIN SMRT retention time set (Domingo-Almenara et al. 2019).

Test: gradient 5% acetonitrile 3 min, to 50% in 2 min, to 85% in 15 min, held 3 min, 100 µL/min
Details: column: Zorbax Extend-C18 2.1 x 50 mm; eluents: water / acetonitrile, 0.1% formic acid
Method in brief: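 Over 3 months, pure standards in mixtures of ~100 molecules were run by HPLC coupled to a quadrupole time-of-flight mass spectrometer in positive and negative ionization mode. The column was a Zorbax Extend-C18 (2.1 × 50 mm, 1.8 μm) at 100 μL/min, eluted with water and acetonitrile each holding 0.1% formic acid, with 40 μL dead and 900 μL dwell volumes. Retention time was determined from adduct peaks chosen by software and checked manually.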

| SMILES | RP-LC retention time [s] |
| --- | --- |
| O=C(CCC[C@@H]1[C@H]2CCCN3CCC[C@@H](CN1C(=O)c1cccs1)[C@@H]23)NCC1CC1 | 586 |
| Cc1cccc(NC(=O)Cn2cnc3onc(C)c3c2=O)c1C | 754 |
| O=C(Cc1ccc(NC(=O)c2cc(=O)c3ccccc3o2)cc1)NCc1cccs1 | 739 |
| Cc1nnc(-c2cc(NC(=O)Cc3c[nH]c4ccccc34)c(C)s2)o1 | 794 |
| CCNC(=O)c1nc2ccccc2n(CC)c1=O | 659 |
| Cc1noc(-c2ccnc(-n3cnc(C(=O)NC(C)c4ccc(F)cc4)c3)c2)n1 (stereo not given) | 885 |
| Cc1cccc(N2CC(C(=O)N3CCCCCC3)CC2=O)c1 (stereo not given) | 802 |
| O=C(CCNc1c(-c2cccc(F)c2)nc2cnccn12)NCc1ccccc1Cl | 780 |
| CCc1ccc2c(c1)c(=O)c(C(=O)c1ccccc1)cn2CC(=O)Nc1cccc(Cl)c1 | 892 |
| CC(C)c1nc(-c2ccc([N+](=O)[O-])cc2)cs1 | 1120 |
| Cc1ccc(-c2nnc(CC(=O)NCC(C)C)o2)cc1 | 775 |
| CC(C)CNC(=O)c1ccn[nH]1 | 604 |
| Cc1nn(-c2nc(-c3ccccc3)cs2)c(C)c1CC(=O)Nc1ccccc1 | 1130 |
| CCOC(=O)c1ccc(Nc2ncccc2S(N)(=O)=O)cc1 | 841 |
| COc1cccc(CN2CC(N(C3CCOCC3)S(C)(=O)=O)C2)c1 | 614 |
| CC(C(=O)NCCCN(C)Cc1ccccc1)n1c(=O)c(C(F)(F)F)nc2ccccc21 (stereo not given) | 725 |
| CC(C)CN1C(=O)c2cccn2CC1C(=O)NCc1ccco1 (stereo not given) | 733 |
| CCCn1cnnc1C1CCN(Cc2cccc(OCC)c2)CC1 | 601 |
| CCOc1ccc(C2NC(=O)NC(C)=C2C(=O)OC2CCCC2)cc1OC (stereo not given) | 770 |
| CCc1nc2cc(-c3noc(-c4cc(Cl)ccc4OC)n3)ccc2o1 | 1220 |
| CC(C)(C)c1ccc(C(=O)Nc2nc3ccccc3[nH]2)cc1 | 778 |
| Cc1cc(-c2nnc(C3CCC3)o2)c(C)n1CC(=O)NCc1ccccc1C(F)(F)F | 960 |
| COc1ccc(COc2cc3oc(=O)c4cc(C(C)O)ccc4c3cc2OC)cc1 (stereo not given) | 942 |
| COc1cc(NC(=O)Nc2nccn(-c3ccccc3)c2=O)cc(OC)c1 | 886 |
| Cc1cccc(NC(=O)N(C)CCc2noc(COc3ccccc3F)n2)c1C | 823 |
| O=S(=O)(NC1(c2nc(-c3ccsc3)no2)CCCCC1)c1ccc2c(c1)OCCO2 | 954 |
| COc1ccc(C2CC(=O)c3cnc(Nc4nc(C)c5ccc(C)cc5n4)nc3C2)cc1 (stereo not given) | 593 |

| SMILES | RP-LC retention time [s] |
| --- | --- |
| Cn1cc(CC(=O)NCc2cc(F)cc(F)c2)c2cccnc21 | 702 |
| CCn1cc(-c2nc(C)c(C(=O)Nc3ccc(C(=O)OC)cc3)s2)c2cccnc21 | 1020 |
| Cc1[nH]c(C(=O)N2CCCC(C(=O)NCCN3CCCCCC3)C2)c(C)c1C(=O)OC(C)C (stereo not given) | 654 |
| COc1cccc(C(=O)N2C[C@@H]3C[C@H](NC(=O)c4cccnc4)[C@H]2C3)c1OC | 619 |
| Cc1c(C(=O)N2CCCC2)cnn1-c1ccc(-c2nc(C3CC3)no2)cn1 | 877 |
| CCn1ccc(C(=O)Nc2cccc(OCc3nnc(-c4ccc(OC)cc4)o3)c2)n1 | 891 |
| CC(C)(NC(=O)c1cnccn1)c1nc2c(c(C(N)=O)n1)OCO2 | 598 |
| CCCN(CC1CCOC1)C(=O)Nc1ccc(C)c(Cl)c1 (stereo not given) | 959 |
| CCSc1nnc(NC(=O)CCc2c(C)n[nH]c2C)s1 | 584 |
| Cc1ccc(NC(=O)c2cc(C)n3nc(C)cc3n2)c(C)c1 | 1140 |
| CC(C)N1C(=O)c2cccnc2Sc2cc(NC(=O)c3ccc4c(c3)OCO4)ccc21 | 878 |
| O=C(C1=CN(c2cc(Cl)cc(Cl)c2)c2cc(F)ccc2S1(=O)=O)N1CCOCC1 | 875 |
| Cc1nc2cc3c(cc2n1CC(=O)NCc1ccc(F)cc1)OCCO3 | 636 |
| CCc1cc(=O)n(CC(=O)NCc2ccccc2OC)c(N)n1 | 602 |
| Cc1[nH]c2ccc(F)cc2c1CCNCc1ccccn1 | 572 |
| CC(NC(=O)Cc1cccn1-c1ccc(Cl)cc1)c1ccccn1 (stereo not given) | 790 |
| CC(C)(C)C(=O)N1CCCC(C(=O)Nc2sc3c(c2C(N)=O)CCCC3)C1 (stereo not given) | 861 |
| COc1ccc(-n2ccc(=O)c(-c3nc(-c4ccccc4F)no3)n2)cc1 | 822 |
| COC(=O)C(NC(=O)N1CC(Cn2c(C)cnc2C2CCOCC2)C1)C(C)C (stereo not given) | 600 |
| c1ccc(CCCCN2CCC(c3ccccc3)CC2)cc1 | 851 |
| COC(=O)c1ccc(NC(=O)Cc2csc(Nc3ccc(F)cc3)n2)cc1 | 838 |
| Cc1nc(-c2noc(-c3ccccc3)n2)cn1CC(=O)NCc1ccc2c(c1)OCO2 | 800 |
| O=C(Nc1ccccc1Br)N1CCc2nc(-c3ccccc3)ncc2C1 | 964 |
| CC1CCCN(c2ccc(NC(=O)C(C)C)c(C(=O)O)c2)C1 (stereo not given) | 627 |
| Cc1[nH]c(=O)[nH]c(=O)c1CCC(=O)N1CCC(c2nc3ccccc3s2)CC1 | 592 |
| CCCNC(=O)C1CCN(c2ccc(SCC(=O)Nc3cc(F)cc(F)c3)nn2)CC1 | 665 |
| O=C(Nc1nc2c(s1)CCC2)c1ccc2c(c1)OCO2 | 812 |

Further lines, results first:

| RP-LC retention time [s] | SMILES |
| --- | --- |
| 1030 | CCN1C(=O)COc2cc(-c3noc(C(=O)N4CCN(c5ccccc5)CC4)n3)ccc21 |
| 982 | Cc1ccccc1NC(=O)N1CCC2(CC1)Nc1ccccc1-n1cccc12 |
| 879 | COc1ccccc1N1CCN(C(=O)c2csc3nc(-c4ccc(F)cc4)cn23)CC1 |
| 1120 | C=CCN(Cc1nc(-c2cccc(C)c2)no1)C(=O)Nc1ccccc1OC |
| 792 | CC(C)CN1CCn2cc(S(=O)(=O)NCc3ccccc3F)cc2C1=O |
| 679 | O=C(Cc1cccs1)N1CCn2c(nnc2-c2ccccc2)C1 |
| 745 | COc1ccc(OCC(=O)NS(=O)(=O)c2ccccc2)cc1 |
| 790 | O=C(COc1ccccc1F)NCC1(c2cccs2)CCOCC1 |
| 726 | CC(NC(=O)c1cc(-c2ccc(Cl)cc2)cn1C)c1cccnc1 (stereo not given) |
| 1320 | CCN(CC)S(=O)(=O)c1cccc(-c2nc(-c3ccc(C)cc3)no2)c1 |
| 819 | Cc1ccccc1Cn1nnc2cc(C(=O)N3CCN(c4ncccn4)CC3)ccc21 |
| 816 | COc1ccc(N2CCN(C(=O)C3(c4ccc(NC(=O)C5CC5)cc4)CCC3)CC2)cc1 |
| 628 | CCN(CC)C(=O)N1CCCC(Cc2nncn2-c2ccccc2)C1 (stereo not given) |
| 622 | Cn1ncc2c3ccccc3n(CC(=O)N3CCN(Cc4ccc5c(c4)OCO5)CC3)c2c1=O |
| 907 | COc1ccc(S(=O)(=O)N2C[C@@H]3C[C@H](NC(=O)c4ccccc4)[C@H]2C3)cc1Cl |
| 646 | COCC(CN1CCN(C2=NS(=O)(=O)c3ccccc32)CC1)OC(=O)c1ccc(C)cc1 (stereo not given) |
| 937 | CCCc1ccc(S(=O)(=O)N2C[C@@H](F)C[C@H]2C(=O)N2CCCCC2)cc1 |
| 870 | CCCc1ccc(S(=O)(=O)N2CCC3(CC2)NCCN=C3NCc2cccc(C)c2)cc1 |

| RP-LC retention time [s] | SMILES |
| --- | --- |
| 835 | Cc1ccccc1NC(=O)C1CCCN(c2ccc3cc(S(=O)(=O)N4CCCCC4)ccc3n2)C1 (stereo not given) |
| 965 | O=C(NCCc1ccccc1)NCc1cccn1Cc1ccc(F)cc1 |
| 1300 | Cc1cccc(-c2noc(C3CCCN3S(=O)(=O)c3ccc(Cl)cc3C)n2)c1 (stereo not given) |
| 686 | COc1ccc(N2CCN(C(=O)Cc3csc4nc(-c5ccc(OC)c(OC)c5)cn34)CC2)cc1 |
| 692 | Cc1ccc(CNC(=O)Cc2nnc(-c3ccccn3)o2)cc1 |
| 650 | COc1ccccc1N1CCN(CCCCN2C(=O)CCC2=O)CC1 |
| 849 | COc1ccc(SCCCC(=O)NCc2ccccc2)cc1 |
| 658 | CCOc1ccc(S(=O)(=O)N2CCC(C(=O)NCc3ccccn3)CC2)cc1 |
| 704 | O=c1n(CC2CC2)nc2n1CCC(NS(=O)(=O)Cc1ccccc1)CC2 (stereo not given) |
| 738 | O=C(Nc1ccccc1)N1CCOC(CN(CC2CCCO2)C(=O)c2ccc3c(c2)OCO3)C1 (stereo not given) |
| 942 | CCOc1ccc(N2C(=O)CC(c3ccc(OC)cc3)CC2=O)cc1 |
| 690 | O=C(O)c1cn(Cc2ccccn2)nc1S(=O)(=O)N1CCc2ccccc2C1 |
| 940 | CC(C)NC(=O)c1ccc(OCC2CCCN(C(=O)C3(c4ccccc4)CC3)C2)cc1 (stereo not given) |
| 863 | CCOc1ccc(N2C(=O)CN(C(C)c3ccccc3)[C@H]3CS(=O)(=O)C[C@H]32)cc1 (stereo not given in full) |
| 695 | O=C1CC(C(=O)N(Cc2cccnc2)c2nc3ccccc3s2)CN1c1ccccc1 (stereo not given) |
| 824 | O=c1n(CCOc2ccc(F)cc2)nc2c(S(=O)(=O)N3CCCC3)cccn12 |
| 693 | COCCN1CC2(CCN(S(=O)(=O)c3ccc(C)cc3)CC2)C1c1ccccc1 (stereo not given) |
| 774 | CCOC(=O)NCCS(=O)(=O)N1CCN(c2ccccc2F)CC1 |
